In publication PMC8901179 (Journal of medicinal chemistry, 2019):

Assays:
Bmal1-dLuc U2OS cells [1] = assay: Cell-based circadian assay; details: for fold more potent than longdaysin (period lengthening): relative to longdaysin
374 kinases = assay: Profiling toward 374 kinases; format: biochemical; details: 5 μM compound
mouse behavioral rhythms [2] = details: cited from earlier work
mouse behavioral rhythms [3] = assay: Circadian behavior measurement, infusion into the lateral ventricle; format: in vivo, mice; details: 1 mM infusion, constant darkness
Bmal1-dLuc U2OS cells [4] = details: cited from earlier work

SMILES	fold more potent than longdaysin (period lengthening) (Bmal1-dLuc U2OS cells [1])	period lengthening activity (in words) (Bmal1-dLuc U2OS cells [1])	other results
CC(C)n1cnc2c(NCc3cccc(C(F)(F)F)c3)nc(NCCN(C)C)nc21 [6a, N2-(2-(Dimethylamino)ethyl)-9-isopropyl-N6-(3-(trifluoromethyl)benzyl)-9H-purine-2,6-diamine]	~ 3 fold	–	–
CC(C)n1cnc2c(NCc3cccc(C(F)(F)F)c3)nc(N3CCC(O)CC3)nc21 [6d, 1-(9-Isopropyl-6-((3-(trifluoromethyl)benzyl)amino)-9H-purin-2-yl)piperidin-4-ol]	–	decreased activity	–
CC(C)n1cnc2c(NCc3cccc(C(F)(F)F)c3)nc(NCCN3CCOCC3)nc21 [6f, 9-Isopropyl-N2-(2-morpholinoethyl)-N6-(3-(trifluoromethyl)-benzyl)-9H-purine-2,6-diamine]	–	decreased activity	–
CC(C)n1cnc2c(NCc3cccc(C(F)(F)F)c3)nc(NCCN)nc21 [6k, N2-(2-Aminoethyl)-9-isopropyl-N6-(3-(trifluoromethyl)benzyl)-9H-purine-2,6-diamine]	–	much less activity compared to 6a	–
CC(C1CC1)n1cnc2c(NCc3cccc(C(F)(F)F)c3)ncnc21 (stereo not shown) [7a]	~ 3 fold	–	–
CC(C1CC1)n1cnc2c(NCc3cccc(C(F)(F)F)c3)nc(NCCN(C)C)nc21 (stereo not shown) [7b, 9-(1-Cyclopropylethyl)-N2-(2-(dimethylamino)ethyl)-N6-(3-(trifluoromethyl)benzyl)-9H-purine-2,6-diamine]	~ 10 fold	–	number of kinases among 374 kinases inhibited by more than 50% (374 kinases): 9
CC(C1CC1)n1cnc2c(N(C)Cc3cccc(C(F)(F)F)c3)nc(NCCN(C)C)nc21 (stereo not shown) [7c, 9-(1-Cyclopropylethyl)-N2-(2-(dimethylamino)ethyl)-N6-methyl-N6-(3-(trifluoromethyl)benzyl)-9H-purine-2,6-diamine]	–	dramatic decrease in the period lengthening activity	–
CC(C1CC1)n1cnc2c(OCc3cccc(C(F)(F)F)c3)nc(NCCN(C)C)nc21 (stereo not shown) [7d, N1-(9-(1-Cyclopropylethyl)-6-((3-(trifluoromethyl)benzyl)oxy)-9H-purin-2-yl)-N2,N2-dimethylethane-1,2-diamine]	–	dramatic decrease in the period lengthening activity	–
Nc1nccc(-c2c(-c3ccc(F)cc3)ncn2C2CCCCC2)n1 [PF-670462]	–	–	period change in vivo (in words) (mouse behavioral rhythms [2]): only small period change in vivo
CC(C)n1cnc2c(NCc3cccc(C(F)(F)F)c3)ncnc21 [longdaysin]	–	–	fold more potent than benipurine (1 h period lengthening) (Bmal1-dLuc U2OS cells [1]; relative to benipurine): 3 fold; period lengthening of circadian behavior (mouse behavioral rhythms [3]): about 0.05 h; compound concentration for 1 h period lengthening (Bmal1-dLuc U2OS cells [4]): 0.3 µM
